Measurements: US10510981B2, “Organic light-emitting diode display panel, fabrication method, and electronic apparatus” (Shanghai Tianma AM-OLED Co., Ltd., priority 2017, dated 2019)
≈ marks a conversion by molar mass, not a printed value.

Test: solubility of the compound adopted in the capping layer
Type: physicochemical
Conditions: thermodynamic from solid, saturated solution, liquid chromatography against a standard curve, solvent not given
Text: The test methods may include: • (1) measuring the solubility of the compound adopted in the capping layer, where the test method may include: testing samples with different concentrations of the compound by Ultimate3000 liquid chromatographic instrument manufactured by company “waters”, plotting a standard curve, then testing a saturated solution, and calculating the solubility by combining the standard curve; • (2) measuring light extraction efficiency by an UVISEB ellipsometer from HORIBA (China) Trading Co., Ltd.; and • (3) measuring lifetime by a LTS-1004DC life tester with from supplier ENC.

**Q.** For `Cc1ccc(N(c2ccc(C(C)C)cc2)c2ccc(-c3ccc(N(c4ccc(C(C)C)cc4)c4ccc(C)cc4C)c(C)c3)cc2C)c(C)c1`, which solubility is on record?
**A.** The solubility was 205 µg/mL (≈ 312 µM).

**Q.** With `CCCCc1ccc(N(c2ccc(C)c(C)c2)c2ccc(-c3ccc(N(c4ccc(CCCC)cc4)c4ccc(C)c(C)c4)c(C)c3)cc2C)cc1` as the compound, how does the solubility read?
**A.** The solubility was 210 µg/mL (≈ 307 µM).

**Q.** Which solubility does the source give for `Cc1cc(-c2ccc(N(c3ccc(-c4ccc(-c5ccccc5)cc4)cc3)c3ccc(-c4ccc(-c5ccccc5)cc4)cc3)c(C)c2)ccc1N(c1ccc(-c2ccc(-c3ccccc3)cc2)cc1)c1ccc(-c2ccc(-c3ccccc3)cc2)cc1` [reference compound] here?
**A.** The solubility was 430 µg/mL (≈ 382 µM).

**Q.** With `C#Cc1ccc(N(c2ccc(CCCC)cc2)c2ccc(-c3ccc(N(c4ccc(CCCC)cc4)c4ccc(C#C)c(C)c4)c(C)c3)cc2C)cc1C` as the compound, how does the solubility read?
**A.** Its solubility is 298 µg/mL (≈ 423 µM).

**Q.** With `Cc1cc(-c2ccc(N(c3ccc(-c4ccccc4)cc3)c3ccc(-c4ccccc4)cc3)c(C)c2)ccc1N(c1ccc(-c2ccccc2)cc1)c1ccc(-c2ccccc2)cc1` as the compound, how does the solubility read?
**A.** The solubility was 211 µg/mL (≈ 257 µM).

**Q.** For `CCc1ccc(-c2ccc(N(c3ccc(-c4ccc(CC)cc4)cc3)c3ccc(-c4ccc(N(c5ccc(-c6ccc(CC)cc6)cc5)c5ccc(-c6ccc(CC)cc6)cc5)c(C)c4)cc3C)cc2)cc1`, which solubility is on record?
**A.** The solubility was 210 µg/mL (≈ 225 µM).

**Q.** Which solubility does the source give for `CCCCc1ccc(N(c2ccc(C)cc2C)c2ccc(-c3ccc(N(c4ccc(CCCC)cc4)c4ccc(C)cc4C)c(C)c3)cc2C)cc1` here?
**A.** Its solubility is 312 µg/mL (≈ 455 µM).

**Q.** With `CCCCc1ccc(N(c2ccc(-c3ccc(N(c4ccc(C)c(C)c4)c4ccc(CCCC)c(C)c4)cc3)cc2)c2ccc(C)c(C)c2)cc1C` as the compound, how does the solubility read?
**A.** Its solubility is 340 µg/mL (≈ 496 µM).

**Q.** With `Cc1ccc(N(c2ccc(-c3ccc(N(c4ccc(C(C)C)cc4)c4ccc(C)cc4C)cc3)cc2)c2ccc(C(C)C)cc2)c(C)c1` as the compound, how does the solubility read?
**A.** Its solubility is 309 µg/mL (≈ 491 µM).

**Q.** With `CCCCc1ccc(N(c2ccc(-c3ccc(N(c4ccc(CCCC)cc4)C4CCCCC4)c(C)c3)cc2C)C2CCCCC2)cc1` [reference compound] as the compound, how does the solubility read?
**A.** The solubility was 566 µg/mL (≈ 883 µM).

**Q.** With `C=Cc1ccc(N(c2ccc(CCCC)cc2)c2ccc(-c3ccc(N(c4ccc(CCCC)cc4)c4ccc(C=C)c(C)c4)c(C)c3)cc2C)cc1C` as the compound, how does the solubility read?
**A.** Its solubility is 300 µg/mL (≈ 423 µM).
